# Measurements: paper PMC9599461, “Stereoselectivity in the Membrane Transport of Phenylethylamine Derivatives by Human Monoamine Transporters and Organic Cation Transporters 1, 2, and 3” (Biomolecules, 2022)
# Like-named read-outs stand apart in the source and are kept apart here. Marks after values point to notes of the source that are not given here.
# Legend:
# [1] = target: T1, SERT (Homo sapiens, UniProt P31645);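 also: uptake into HEK293 cells stably expressing human SERT over 2 min, enantiomers measured in cell lysate by chiral HPLC-MS/MS, normalized to total protein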
# [2] = target: NET (Homo sapiens, UniProt P23975); assay: Stereoselective uptake into NET-overexpressing HEK293 cells; conditions: for Vmax ± SEM: net uptake; for Clint ± SEM: quotient of vmax over Km; for Stereoselectivity ClInt / Stereoselectivity Vmax: given as for (S) or for 2;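 as to all read-outs here: intracellular enantiomers quantified in cell lysates by chiral HPLC-MS/MS after a 2 min substrate incubation, with uptake normalized to total cellular protein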
# [3] = target: DAT (Homo sapiens, UniProt Q01959); assay: Stereoselective uptake into DAT-overexpressing HEK293 cells; conditions: for Clint ± SEM / Stereoselectivity ClInt / Stereoselectivity Vmax / Stereoselectivity Km: DAT; for Clint ± SEM: quotient of vmax over Km; for Stereoselectivity ClInt / Stereoselectivity Vmax / Stereoselectivity Km: ratio between enantiomers; for Stereoselectivity ClInt / Stereoselectivity Vmax: given as for (S) or for 2; for Stereoselectivity Km: given as for (S) or for 2 (second-eluting);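 as to all read-outs here: intracellular accumulation measured by chiral HPLC-MS/MS in stably transfected HEK293 cells, normalized to total protein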
# Experimental: (§1) All transport experiments were carried out in HEK293 cells stably overexpressing human MATs or OCTs. […] All cells were regularly cultivated in DMEM supplemented with 10% (v/v) FCS, penicillin (100 U/mL) and streptomycin (100 μg/mL)and kept in culture for no longer than 30 passages.
# (§2) For the uptake experiments, 300,000 cells were plated in poly-D-lysine precoated 24-well plates 48 h ahead of the transport experiment. On the day of experiment, cells were initially washed once with 37 °C pre-warmed HBSS+ (Hanks buffered salt solution supplemented with 10 mM HEPES) and subsequently incubated with the substrates dissolved in pre-warmed HBSS+ for exactly two minutes. Incubation was stopped by adding ice-cold HBSS+ followed by two washing steps. After this, cells were lysed with 80% acetonitrile containing 10 ng/mL milnacipran as internal standard for high-performance liquid chromatography coupled to tandem mass spectrometry (HPLC-MS/MS) analysis. For every experiment, two additional wells per cell line were lysed using RIPA buffer for protein quantification. Total protein was quantified using the bicinchoninic acid assay [42]. This was later used for normalization of the uptake data.
# (§3) Intracellularly accumulated test substances were quantified by HPLC-MS/MS analysis using a Shimadzu Nexera HPLC system with a SIL-30AC autosampler, a CTO-20AC column oven, a LC-30AD pump, and a CBM-20A controller (Shimadzu, Kyoto, Japan). Stereoselective chromatography was carried out on a [sequence] CBH HPLC column (100 × 3 mm inner dimension with 5 μM particle size; Sigma-Aldrich, Darmstadt, Germany) with a corresponding 10 × 3 mm guard column. Reversed phased chromatography was carried out using an ammonium acetate (NH4Ac) buffered aqueous mobile phase with isopropyl alcohol (IPA) as organic solvent. […] The order of elution of the enantiomers was obtained from available reference literature [43] or by applying enantiopure reference compounds to the chiral HPLC. […] Given the structural similarity of the investigated substances and the fact that separation was performed on the same column with almost identical mobile phases, we assume that this order of elution for our compound set is always the (R)- before the (S)-enantiomer.
# (§4) Detection was performed with an API 4000 tandem mass spectrometer (AB SCIEX, Darmstadt, Germany) operating in multiple-reaction-monitoring mode. Quantification was performed using the Analyst 1.6.2 software (AB SCIEX, Darmstadt, Germany) and quantified by comparison to standard curves with known concentrations.
# (§5) All uptake data were normalized to protein content to account for variation in the number of seeded sells. Transporter-mediated net uptake was calculated by subtracting uptake into empty vector-transfected control cells from uptake into transporter-transfected cells. Kinetic parameters were then determined after non-linear regression following the Michaelis–Menten equation (v = vmax × [S]/(Km + [S])) using GraphPad Prism (Version 5.01 for Windows, GraphPad Software, La Jolla, CA, USA). Vmax refers to the maximum transport velocity and Km is defined as the substance concentration required to reach half of vmax. The intrinsic clearance Clint was calculated as the quotient of vmax over Km.
# [4] = target: T1, SERT; assay: Stereoselective uptake into SERT-overexpressing HEK293 cells; conditions: for Clint ± SEM: SERT, quotient of vmax over Km;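 as to all read-outs here: uptake into HEK293 cells stably expressing human SERT over 2 min, enantiomers measured in cell lysate by chiral HPLC-MS/MS, normalized to total protein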
# [5] = target: T2, OCT1 (Homo sapiens, UniProt O15245); assay: Stereoselective uptake into OCT1-overexpressing HEK293 cells; conditions: for Clint ± SEM: quotient of vmax over Km;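 as to all read-outs here: enantiomers quantified inside cells by chiral HPLC-MS/MS, uptake normalized to total protein from bicinchoninic acid assay, substrates applied in HBSS+ buffer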
# T2 sequence (O15245 1-554): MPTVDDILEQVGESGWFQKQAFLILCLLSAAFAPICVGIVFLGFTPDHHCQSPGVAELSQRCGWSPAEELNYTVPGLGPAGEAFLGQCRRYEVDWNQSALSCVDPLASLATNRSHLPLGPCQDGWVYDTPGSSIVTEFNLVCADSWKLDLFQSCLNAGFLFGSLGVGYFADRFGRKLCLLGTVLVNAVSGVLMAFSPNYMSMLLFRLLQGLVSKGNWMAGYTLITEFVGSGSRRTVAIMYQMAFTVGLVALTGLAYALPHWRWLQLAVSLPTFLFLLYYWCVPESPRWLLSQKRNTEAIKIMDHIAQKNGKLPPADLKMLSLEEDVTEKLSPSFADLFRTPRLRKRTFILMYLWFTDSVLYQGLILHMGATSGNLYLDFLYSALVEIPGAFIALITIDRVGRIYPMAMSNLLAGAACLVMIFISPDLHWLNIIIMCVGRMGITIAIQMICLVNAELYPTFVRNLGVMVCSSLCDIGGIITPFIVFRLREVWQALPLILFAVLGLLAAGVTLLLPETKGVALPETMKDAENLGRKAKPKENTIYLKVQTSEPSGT
# Experimental: as §1, §2, §3, §4, §5
# [6] = target: T3, OCT3 (Homo sapiens, UniProt O75751); assay: Stereoselective uptake into OCT3-overexpressing HEK293 cells; conditions: for Clint ± SEM: quotient of vmax over Km; for Stereoselectivity Vmax: given as for (R) or for 1; for Stereoselectivity Km: given as for (R) or for 1 (first-eluting);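 as to all read-outs here: intracellular accumulation in HEK293 cells measured by chiral HPLC-MS/MS after a 2 min substrate exposure at 37 °C, uptake normalized to total protein (bicinchoninic acid assay)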
# T3 sequence (O75751 1-556): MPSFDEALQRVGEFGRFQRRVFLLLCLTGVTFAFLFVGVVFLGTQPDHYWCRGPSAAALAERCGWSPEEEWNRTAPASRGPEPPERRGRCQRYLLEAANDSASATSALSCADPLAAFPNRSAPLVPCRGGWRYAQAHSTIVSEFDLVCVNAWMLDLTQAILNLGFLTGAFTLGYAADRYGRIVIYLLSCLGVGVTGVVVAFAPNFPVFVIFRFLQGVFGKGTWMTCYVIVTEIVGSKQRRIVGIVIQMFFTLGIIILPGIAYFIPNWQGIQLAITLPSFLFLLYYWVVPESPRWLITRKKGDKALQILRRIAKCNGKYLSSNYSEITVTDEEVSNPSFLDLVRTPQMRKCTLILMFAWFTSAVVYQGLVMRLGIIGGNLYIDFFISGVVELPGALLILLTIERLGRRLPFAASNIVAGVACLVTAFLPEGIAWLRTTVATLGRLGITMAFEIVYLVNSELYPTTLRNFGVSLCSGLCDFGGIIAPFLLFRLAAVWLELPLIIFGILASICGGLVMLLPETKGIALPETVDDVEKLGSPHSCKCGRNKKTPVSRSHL
# [7] = target: T4, OCT2 (Homo sapiens, UniProt O15244); assay: Stereoselective uptake into OCT2 (wild-type)-overexpressing HEK293 cells; conditions: for Clint ± SEM: OCT2, quotient of vmax over Km
# T4 sequence (O15244 1-555 S270A): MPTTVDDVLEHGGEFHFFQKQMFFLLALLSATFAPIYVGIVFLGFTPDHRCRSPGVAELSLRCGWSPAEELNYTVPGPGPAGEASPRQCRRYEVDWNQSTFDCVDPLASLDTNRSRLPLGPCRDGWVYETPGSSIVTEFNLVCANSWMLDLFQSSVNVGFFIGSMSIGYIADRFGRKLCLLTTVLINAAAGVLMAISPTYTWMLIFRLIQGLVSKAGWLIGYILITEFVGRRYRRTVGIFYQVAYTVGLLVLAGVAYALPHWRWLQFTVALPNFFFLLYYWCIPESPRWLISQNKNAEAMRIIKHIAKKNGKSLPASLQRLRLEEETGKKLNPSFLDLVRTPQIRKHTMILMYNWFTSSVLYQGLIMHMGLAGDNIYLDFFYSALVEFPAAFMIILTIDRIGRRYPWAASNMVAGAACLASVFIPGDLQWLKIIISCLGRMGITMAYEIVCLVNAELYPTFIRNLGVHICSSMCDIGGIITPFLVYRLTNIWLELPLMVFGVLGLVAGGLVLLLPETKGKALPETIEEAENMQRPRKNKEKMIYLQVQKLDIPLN
# [8] = target: T5, OCT2 (Homo sapiens, UniProt O15244, S270A); assay: as above; conditions: OCT2, ratio between enantiomers; for Stereoselectivity ClInt / Stereoselectivity Vmax: given as for (R) or for 1; for Stereoselectivity Km: given as for (R) or for 1 (first-eluting)
# T5 sequence (O15244 1-555 S270A): T4 sequence (O15244 1-555 S270A)
# [9] = tested on: OCT2 A270S variant; assay: Stereoselective uptake into OCT2 A270S variant-overexpressing HEK293 cells; conditions: OCT2 wild-type versus A270S, 100 μM racemic substance, two minutes, given as for WT;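 also: uptake into HEK293 cells stably overexpressing human OCT2 variants, intracellular enantiomers quantified by chiral HPLC-MS/MS and normalized to total protein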
# [10] = HEK293 cells overexpressing human NET, racemic substrate, two minutes
# [11] = OCT3, ratio between enantiomers
# [12] = OCT1, ratio between enantiomers, given as for (S) or for 2
# Chain of NET (P23975 whole entry): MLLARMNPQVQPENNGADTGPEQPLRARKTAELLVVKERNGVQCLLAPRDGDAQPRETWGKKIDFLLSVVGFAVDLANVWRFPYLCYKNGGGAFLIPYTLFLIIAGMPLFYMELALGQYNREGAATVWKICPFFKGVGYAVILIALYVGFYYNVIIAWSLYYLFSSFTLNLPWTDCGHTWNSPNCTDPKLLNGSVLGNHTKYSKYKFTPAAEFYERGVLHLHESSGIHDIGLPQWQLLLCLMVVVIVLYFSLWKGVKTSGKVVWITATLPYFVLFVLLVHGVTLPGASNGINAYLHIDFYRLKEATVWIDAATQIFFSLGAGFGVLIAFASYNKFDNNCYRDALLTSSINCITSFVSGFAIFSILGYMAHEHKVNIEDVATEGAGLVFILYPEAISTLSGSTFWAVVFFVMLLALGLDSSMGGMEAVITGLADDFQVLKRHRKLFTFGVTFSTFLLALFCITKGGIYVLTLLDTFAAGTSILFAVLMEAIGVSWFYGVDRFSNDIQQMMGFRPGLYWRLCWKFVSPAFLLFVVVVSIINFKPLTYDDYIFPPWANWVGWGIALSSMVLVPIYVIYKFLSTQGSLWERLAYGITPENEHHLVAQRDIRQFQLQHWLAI
# Chain of DAT (Q01959 whole entry): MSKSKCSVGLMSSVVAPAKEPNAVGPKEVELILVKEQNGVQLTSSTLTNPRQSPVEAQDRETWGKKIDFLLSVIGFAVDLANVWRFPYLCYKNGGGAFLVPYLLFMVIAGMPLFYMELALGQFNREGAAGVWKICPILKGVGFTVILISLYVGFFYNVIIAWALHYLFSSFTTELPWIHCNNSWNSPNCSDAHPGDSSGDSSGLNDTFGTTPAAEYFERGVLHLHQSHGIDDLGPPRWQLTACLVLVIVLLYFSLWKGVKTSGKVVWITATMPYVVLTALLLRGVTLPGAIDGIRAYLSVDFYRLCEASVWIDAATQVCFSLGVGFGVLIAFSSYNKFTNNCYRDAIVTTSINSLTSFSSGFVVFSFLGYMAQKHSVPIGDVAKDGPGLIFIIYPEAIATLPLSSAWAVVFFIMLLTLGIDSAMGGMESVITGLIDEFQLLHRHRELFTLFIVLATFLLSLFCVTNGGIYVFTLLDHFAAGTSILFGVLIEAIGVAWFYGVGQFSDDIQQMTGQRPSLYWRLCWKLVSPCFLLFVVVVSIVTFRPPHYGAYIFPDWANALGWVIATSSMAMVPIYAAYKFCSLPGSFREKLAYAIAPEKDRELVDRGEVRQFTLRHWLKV
# T1 sequence (P31645 whole entry): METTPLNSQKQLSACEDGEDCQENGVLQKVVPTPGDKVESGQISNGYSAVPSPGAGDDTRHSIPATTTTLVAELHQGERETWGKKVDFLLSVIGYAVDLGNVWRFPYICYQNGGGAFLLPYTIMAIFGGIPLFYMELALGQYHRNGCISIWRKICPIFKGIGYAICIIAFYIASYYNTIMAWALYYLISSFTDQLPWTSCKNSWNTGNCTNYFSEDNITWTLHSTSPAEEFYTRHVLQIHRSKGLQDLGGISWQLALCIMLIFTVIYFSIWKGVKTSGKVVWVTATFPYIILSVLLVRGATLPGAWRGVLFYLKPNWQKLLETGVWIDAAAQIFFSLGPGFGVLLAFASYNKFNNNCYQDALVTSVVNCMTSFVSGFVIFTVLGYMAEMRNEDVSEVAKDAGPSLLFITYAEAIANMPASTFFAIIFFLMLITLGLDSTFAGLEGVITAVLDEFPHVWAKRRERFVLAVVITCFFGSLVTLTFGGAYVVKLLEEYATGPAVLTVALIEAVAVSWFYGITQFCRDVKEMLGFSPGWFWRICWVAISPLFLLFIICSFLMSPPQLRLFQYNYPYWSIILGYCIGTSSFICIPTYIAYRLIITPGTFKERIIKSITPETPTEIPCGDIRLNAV
Structure (SMILES),"Vmax ± SEM [2, 10]",Clint ± SEM ([2]; NET),"Stereoselectivity ClInt ([2]; NET, ratio between enantiomers)","Stereoselectivity Vmax ([2]; NET, ratio between enantiomers)",Clint ± SEM [3],Stereoselectivity ClInt [3],Stereoselectivity Vmax [3],Stereoselectivity Km [3],Stereoselectivity Km [4],Stereoselectivity Vmax [4],Clint ± SEM [4],Clint ± SEM ([5]; OCT1),Clint ± SEM ([6]; OCT3),"Stereoselectivity Vmax [6, 11]","Stereoselectivity Km [6, 11]",Clint ± SEM [7],Stereoselectivity ClInt [8],Stereoselectivity Vmax [8],Stereoselectivity Km [8],further results
"NCC(O)c1cccc(O)c1 (single isomer, unassigned) [Norphenylephrine-2, Norphenylephrine]",531 pmol × mg Protein^−1 × min^−1,230 mL × g Protein^−1 × min^−1,1.21 fold,1.25 fold,167 mL × g Protein^−1 × min^−1,1.29 fold,1.55 fold,1.20 fold,1.20 fold,1.27 fold,1.83 mL × g Protein^−1 × min^−1,3.84 mL × g Protein^−1 × min^−1,3.32 mL × g Protein^−1 × min^−1,3.88 fold,1.17 fold,26.07 mL × g Protein^−1 × min^−1,1.40 fold,2.19 fold,1.57 fold,"Stereoselectivity ClInt ([1]; human): 1.53 fold; Stereoselectivity Vmax ([5]; OCT1, ratio between enantiomers, given as for (R) or for 1): 1.08 fold; Stereoselectivity Km ([5]; OCT1, ratio between enantiomers, given as for (R) or for 1 (first-eluting)): 1.03 fold; Stereoselectivity ClInt ([5]; human, 2 min): 1.05 fold; Stereoselectivity ClInt ([6]; human, 2 min): 3.32 fold; Transporter selectivity ([9]; listed as (S)-Norphenylephrine): 1.12 fold"
NC[C@@H](O)c1ccc(O)c(O)c1 [(S)-Norepinephrine],362 ± 20 pmol × mg Protein^−1 × min^−1,118.7 ± 46.0 mL × g Protein^−1 × min^−1,1.05-fold for (S),1.38-fold for (S) **,155.5 ± 21.4 mL × g Protein^−1 × min^−1,1.12-fold for (S),1.47-fold for (S) ***,1.31-fold for (S),1.01-fold for (R),1.79-fold for (R) **,2.31 ± 0.93 mL × g Protein^−1 × min^−1,0.48 ± 0.20 mL × g Protein^−1 × min^−1,7.05 ± 2.73 mL × g Protein^−1 × min^−1,1.01-fold for (R),1.07-fold for (R),2.32 ± 0.71 mL × g Protein^−1 × min^−1,1.64-fold for (R),2.17-fold for (R) **,1.32-fold for (R),"Stereoselectivity ClInt [1]: 1.78-fold for (R); Stereoselectivity Km ([2]; NET, ratio between enantiomers, given as for (S) or for 2 (second-eluting)): 1.32-fold for (S); Km ([2]; read-out: Km ± SEM, HEK293 cells overexpressing human NET, racemic substrate, two minutes, net uptake minus empty vector control): 3.05 ± 1.01 µM; Vmax ± SEM ([3]; HEK293 cells overexpressing human DAT, racemic substrate, two minutes, net uptake): 4524 ± 122 pmol × mg Protein^−1 × min^−1; Km ([3]; read-out: Km ± SEM, HEK293 cells overexpressing human DAT, racemic substrate, two minutes, net uptake minus empty vector control): 29.1 ± 3.2 µM; Vmax ± SEM ([4]; HEK293 cells overexpressing human SERT, racemic substrate, two minutes, net uptake): 405 ± 42 pmol × mg Protein^−1 × min^−1; Km ([4]; read-out: Km ± SEM, HEK293 cells overexpressing human SERT, racemic substrate, two minutes, net uptake minus empty vector control): 175 ± 52.2 µM; Vmax ± SEM ([5]; HEK293 cells overexpressing human OCT1, racemic substrate, two minutes, net uptake): 1766 ± 258 pmol × mg Protein^−1 × min^−1; Stereoselectivity ClInt [5, 12]: 1.06-fold for (S); Stereoselectivity Vmax [5, 12]: 1.16-fold for (S); Stereoselectivity Km ([5]; OCT1, ratio between enantiomers, given as for (S) or for 2 (second-eluting)): 1.09-fold for (S); Km ([5]; read-out: Km ± SEM, HEK293 cells overexpressing human OCT1, racemic substrate, two minutes, net uptake minus empty vector control): 3710 ± 1010 µM; Vmax ± SEM ([6]; HEK293 cells overexpressing human OCT3, racemic substrate, two minutes, net uptake): 3662 ± 299 pmol × mg Protein^−1 × min^−1; Stereoselectivity ClInt ([6]; OCT3, ratio between enantiomers, given as for (S) or for 2): 1.07-fold for (S); Km ([6]; read-out: Km ± SEM, HEK293 cells overexpressing human OCT3, racemic substrate, two minutes, net uptake minus empty vector control): 519 ± 158 µM; Vmax ± SEM ([7]; HEK293 cells overexpressing human OCT2, racemic substrate, two minutes, net uptake): 3042 ± 258 pmol × mg Protein^−1 × min^−1; Km ([7]; read-out: Km ± SEM, HEK293 cells overexpressing human OCT2, racemic substrate, two minutes, net uptake minus empty vector control): 1310 ± 291 µM; Transporter selectivity [9]: 1.22 fold"
